Tested on: 233499-124-R-J3-PDC complex spheroid viability, % test/control
Assay: Anticancer human tumor 233499-124-R-J3-PDC patient-derived colon adenocarcinoma cell line growth inhibition
Conditions: for IC50: curve of first compound; for viability, T/C: stronger effect = lower value
Summary of the method: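 Complex spheroids of tumor cells with HUVEC and human MSCs, exposed to iadademstat combined with other agents. Each agent tested in half-log steps from near clinical Cmax (else 10 microM top), DMSO ≤0.25%.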

[1] = second compound 0.1 µM, first compound 0.00316 µM
[2] = second compound 0.1 µM, first compound 0.01 µM
[3] = second compound 0.1 µM, first compound 0.0316 µM
[4] = second compound 0.1 µM, first compound 0.1 µM
[5] = second compound 0.316 µM, first compound 0.00316 µM
[6] = second compound 0.316 µM, first compound 0.01 µM
[7] = second compound 0.316 µM, first compound 0.0316 µM
[8] = second compound 0.316 µM, first compound 0.1 µM
[9] = second compound 1 µM, first compound 0.00316 µM
[10] = second compound 1 µM, first compound 0.01 µM
[11] = second compound 1 µM, first compound 0.0316 µM
[12] = second compound 1 µM, first compound 0.1 µM
[13] = second compound 3.16 µM, first compound 0.00316 µM
[14] = second compound 3.16 µM, first compound 0.01 µM
[15] = second compound 3.16 µM, first compound 0.0316 µM
[16] = second compound 3.16 µM, first compound 0.1 µM
[17] = second compound 10 µM, first compound 0.00316 µM
[18] = second compound 10 µM, first compound 0.01 µM
[19] = second compound 10 µM, first compound 0.0316 µM
[20] = second compound 10 µM, first compound 0.1 µM
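Note: spheroids exposed to agents for one week before readout.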

COc1cc(Nc2ncc3c(n2)-c2ccc(Cl)cc2C(c2c(F)cccc2OC)=NC3)ccc1C(=O)O + NC1CC1c1ccc(-c2cccc(O)c2)cc1
IC50 (second compound 0.1 µM): > 1 µM
IC50 (second compound 0.316 µM): > 1 µM
IC50 (second compound 1 µM): < 0.00316 µM
IC50 (second compound 3.16 µM): < 0.00316 µM
IC50 (second compound 10 µM): < 0.00316 µM
viability, T/C [1]: 44.5%
viability, T/C [2]: 54.3%
viability, T/C [3]: 66.4%
viability, T/C [4]: 72.5%
viability, T/C (second compound 0.1 µM, first compound 0.316 µM): 62%
viability, T/C (second compound 0.1 µM, first compound 1 µM): 102%
viability, T/C [5]: 49.5%
viability, T/C [6]: 59.6%
viability, T/C [7]: 64.1%
viability, T/C [8]: 62.1%
viability, T/C (second compound 0.316 µM, first compound 0.316 µM): 62.8%
viability, T/C (second compound 0.316 µM, first compound 1 µM): 98.4%
viability, T/C [9]: 44.2%
viability, T/C [10]: 50.7%
viability, T/C [11]: 53.2%
viability, T/C [12]: 54.3%
viability, T/C (second compound 1 µM, first compound 0.316 µM): 60.6%
viability, T/C (second compound 1 µM, first compound 1 µM): 82.9%
viability, T/C [13]: 39.8%
viability, T/C [14]: 52.1%
viability, T/C [15]: 70.5%
viability, T/C [16]: 57.2%
viability, T/C (second compound 3.16 µM, first compound 0.316 µM): 62.5%
viability, T/C (second compound 3.16 µM, first compound 1 µM): 88.9%
viability, T/C [17]: 33%
viability, T/C [18]: 48.3%
viability, T/C [19]: 56.2%
viability, T/C [20]: 49%
viability, T/C (second compound 10 µM, first compound 0.316 µM): 52.1%
viability, T/C (second compound 10 µM, first compound 1 µM): 86.1%

Cn1ncnc1C1c2n[nH]c(=O)c3cc(F)cc(c23)NC1c1ccc(F)cc1 (stereo not given) + NC1CC1c1ccc(-c2cccc(O)c2)cc1
IC50 (second compound 0.1 µM): > 0.1 µM
IC50 (second compound 0.316 µM): > 0.1 µM
IC50 (second compound 1 µM): > 0.1 µM
IC50 (second compound 3.16 µM): > 0.1 µM
IC50 (second compound 10 µM): > 0.1 µM
viability, T/C (second compound 0.1 µM, first compound 0.000316 µM): 106%
viability, T/C (second compound 0.1 µM, first compound 0.001 µM): 105%
viability, T/C [1]: 105%
viability, T/C [2]: 91.2%
viability, T/C [3]: 95.4%
viability, T/C [4]: 84.4%
viability, T/C (second compound 0.316 µM, first compound 0.000316 µM): 89.1%
viability, T/C (second compound 0.316 µM, first compound 0.001 µM): 108%
viability, T/C [5]: 128%
viability, T/C [6]: 98.1%
viability, T/C [7]: 102%
viability, T/C [8]: 89.3%
viability, T/C (second compound 1 µM, first compound 0.000316 µM): 85.7%
viability, T/C (second compound 1 µM, first compound 0.001 µM): 83.1%
viability, T/C [9]: 87.5%
viability, T/C [10]: 74.2%
viability, T/C [11]: 89.5%
viability, T/C [12]: 88.5%
viability, T/C (second compound 3.16 µM, first compound 0.000316 µM): 89.9%
viability, T/C (second compound 3.16 µM, first compound 0.001 µM): 96%
viability, T/C [13]: 90.2%
viability, T/C [14]: 76.5%
viability, T/C [15]: 76.7%
viability, T/C [16]: 78.5%
viability, T/C (second compound 10 µM, first compound 0.000316 µM): 74.7%
viability, T/C (second compound 10 µM, first compound 0.001 µM): 80.6%
viability, T/C [17]: 69.7%
viability, T/C [18]: 70.3%
viability, T/C [19]: 58.7%
viability, T/C [20]: 58.8%

NS(=O)(=O)OCC1CC(n2ccc3c(NC4CCc5ccccc54)ncnc32)CC1O (stereo not given) + NC1CC1c1ccc(-c2cccc(O)c2)cc1
IC50 (second compound 0.1 µM): 0.0468 µM
IC50 (second compound 0.316 µM): 0.0585 µM
IC50 (second compound 1 µM): 0.0423 µM
IC50 (second compound 3.16 µM): 0.0524 µM
IC50 (second compound 10 µM): 0.0464 µM
viability, T/C (second compound 0.1 µM, first compound 0.00949 µM): 92.5%
viability, T/C (second compound 0.1 µM, first compound 0.03 µM): 63.6%
viability, T/C (second compound 0.1 µM, first compound 0.0949 µM): 28.6%
viability, T/C (second compound 0.1 µM, first compound 0.3 µM): 6.14%
viability, T/C (second compound 0.1 µM, first compound 0.949 µM): 3.11%
viability, T/C (second compound 0.1 µM, first compound 3 µM): 2.93%
viability, T/C (second compound 0.316 µM, first compound 0.00949 µM): 100%
viability, T/C (second compound 0.316 µM, first compound 0.03 µM): 76.9%
viability, T/C (second compound 0.316 µM, first compound 0.0949 µM): 31.2%
viability, T/C (second compound 0.316 µM, first compound 0.3 µM): 5.03%
viability, T/C (second compound 0.316 µM, first compound 0.949 µM): 4.27%
viability, T/C (second compound 0.316 µM, first compound 3 µM): 3.91%
viability, T/C (second compound 1 µM, first compound 0.00949 µM): 92.3%
viability, T/C (second compound 1 µM, first compound 0.03 µM): 59.1%
viability, T/C (second compound 1 µM, first compound 0.0949 µM): 28.5%
viability, T/C (second compound 1 µM, first compound 0.3 µM): 9.59%
viability, T/C (second compound 1 µM, first compound 0.949 µM): 4.05%
viability, T/C (second compound 1 µM, first compound 3 µM): 3.47%
viability, T/C (second compound 3.16 µM, first compound 0.00949 µM): 90.8%
viability, T/C (second compound 3.16 µM, first compound 0.03 µM): 68.8%
viability, T/C (second compound 3.16 µM, first compound 0.0949 µM): 29.9%
viability, T/C (second compound 3.16 µM, first compound 0.3 µM): 9.96%
viability, T/C (second compound 3.16 µM, first compound 0.949 µM): 4.13%
viability, T/C (second compound 3.16 µM, first compound 3 µM): 3.43%
viability, T/C (second compound 10 µM, first compound 0.00949 µM): 84%
viability, T/C (second compound 10 µM, first compound 0.03 µM): 63.9%
viability, T/C (second compound 10 µM, first compound 0.0949 µM): 27.1%
viability, T/C (second compound 10 µM, first compound 0.3 µM): 8.93%
viability, T/C (second compound 10 µM, first compound 0.949 µM): 5.35%
viability, T/C (second compound 10 µM, first compound 3 µM): 2.93%

Source: PubChem BioAssay AID1918930 (Molecular Pharmacology Branch, DTP, NCI, 2023)
